The text below walks through data of patent US20120252721A1 (priority 2011, published 2012).

Data set [1] has as its system ZS11-luc WT (HCV genotype 1b replicon). Kind of data set: Luciferase replicon transient transfection assay, ZS11-luc WT. In kind it is cell-based, hepatitis C virus. The conditions noted are these: for EC50: genotype 1b, ZS11-luc WT, Huh7.5 cells, 4 days; for Ratio: ZS11-luc (Table 1I). As for the experimental part: (§1) The luciferase replicon transient transfection assay measures the ability of a test compound to inhibit the replication of a transiently-transfected HCV luciferase-bearing wild-type or mutant replicon in cured human hepatoma cells (Huh7.5). The inhibition of HCV replication was measured by quantification of luciferase protein expression. This assay has been validated using a panel of genotype 1a and 1b replicons bearing mutations known to be associated with resistance to BMS-790052. Briefly, subconfluent Huh7.5 cells were electroporated with 10 μg of wild-type or mutant luciferase-bearing HCV replicon RNA. The cells were then seeded in 96-well opaque white plates at 3×10^4 cells/well in 150 μL/well and incubated for 4 hrs at 37° C./5% CO2. Ten 1:5 serial dilutions of each test compound were made in media (DMEM containing glucose, L-glutamine and sodium pyruvate, 10% fetal bovine serum, 100 IU/mL penicillin, 100 μg/mL streptomycin, 2 mM GlutaMAX, and 1×MEM non-essential amino acids (Mediatech, Inc. and Invitrogen Corp.)) at concentrations that were 4× higher than the final concentrations to be tested and 50 μL/well was added to the transfected cells. Untreated, mock-transfected cells served as a negative control of luciferase expression. The plates were incubated at 37° C./5% CO2 for 4 days whereupon the media was removed and 50 μL of ONE-glo luciferase substrate (Promega) was added to each well. The plates were agitated on a rotating platform at room temperature for 3 min and read in a Victor^3V microplate reader (Perkin-Elmer) using a 700 nm cut-off filter with a 1 sec read time. EC50 values were calculated from dose response curves from the resulting best-fit equations determined by Microsoft Excel and XLfit 4.1 software.
(Replicon systems follow genome replication, usually without infectious particles.)

The nature of the next data set: in vitro. In kind it is cell-based. The conditions noted are these: human; GS4.1 cells, cellular viability. As for the experimental part: For cytotoxicity evaluation, GS4.1 cells were treated with compounds as described above and cellular viability was monitored using the Cell Titer 96 AQeous One Solution Cell Proliferation Assay (Promega). CC50 values were determined from the % cytotoxicity versus concentration data with Tecan Magellan software as described above.

Data set [2] concerns HCV Con1 subgenomic replicon (GS4.1 cells). Kind of data set: HCV replicon assay (NS5A ELISA, 72 hrs). In kind it is cell-based. The conditions noted are these: Hepatitis C virus. Summed up:
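GS4.1 cells (Huh-7 carrying the Con1 subgenomic replicon) were seeded at 7.5×10^3 cells/well and dosed 3 h later with ten 2-fold dilutions (top 75 μM) or a single 15 μM in 0.5% DMSO, then held 72 h at 37 °C. NS5A was quantified by cell ELISA (mAb A-236, OPD, A492), and EC50s came from four-parameter sigmoidal fits.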

The test system of data set [3] is ZS11-luc R30E (HCV genotype 1b replicon). Put plainly: Luciferase replicon transient transfection assay, ZS11-luc R30E. Format: cell-based, hepatitis C virus. The conditions noted are these: for EC50: Hepatitis C virus, 96 h, Huh7.5 cells, 4 days. As for the experimental part:
as §1

Data set [4] deals with ZS11-luc replicon, NS3-D168V. Kind of data set: Luciferase replicon transient transfection assay, NS3-D168V. Format: cell-based, hepatitis C virus. The conditions noted are these: for EC50: Hepatitis C virus. How it is done: as §1
(§2) To determine the replication capacity of each mutant relative to the wild-type parental replicon, transfected cells were plated on two plates and were not treated with compound. Luciferase activity was measured at time points of 4 hrs and 4 days after plating for each replicon. Replication capacity was calculated by dividing the day 4 CPS by the 4 hour CPS for each replicon and determining the percentage present for each mutant replicon relative to wild-type replicon values. The NS3, NS4B, and NS5B mutants were prepared and tested according to the methods described herein.

The subject of data set [5] is ZS11-luc L28T (HCV genotype 1b replicon). Put plainly: Luciferase replicon transient transfection assay, ZS11-luc L28T. Format: cell-based, hepatitis C virus. The conditions noted are these: for EC50: Hepatitis C virus, 96 h, Huh7.5 cells, 4 days. How it is done: as §1
Data set [6] deals with HCV genotype 1a replicon, NS5A K24E. Kind of data set: Luciferase replicon transient transfection assay, genotype 1a NS5A K24E. Format: cell-based, hepatitis C virus. The conditions noted are these: for EC50: Hepatitis C virus, genotype 1a, HCV region NS5A, mutation K24E. As for the experimental part:
as §1

The next data set relates to HCV genotype 5a. Kind of data set: Replicon assay, genotype 5a (method not described). Format: cell-based. The conditions noted are these: Hepatitis C virus.
For data set [7], the system named is ZS11-luc P32L (HCV genotype 1b replicon). Kind of data set: Luciferase replicon transient transfection assay, ZS11-luc P32L. Format: cell-based, hepatitis C virus. The conditions noted are these: for EC50: Hepatitis C virus, 96 h, Huh7.5 cells, 4 days. How it is done:
as §1

For data set [8], the system named is ZS11-luc Y93N (HCV genotype 1b replicon). Put plainly: Luciferase replicon transient transfection assay, ZS11-luc Y93N. In kind it is cell-based, hepatitis C virus. The conditions noted are these: for EC50: Hepatitis C virus, 96 h, Huh7.5 cells, 4 days. As for the experimental part:
as §1

In data set [9] the test system is 1a-luc M28T (HCV genotype 1a replicon). Put plainly: Luciferase replicon transient transfection assay, 1a-luc M28T. The conditions noted are these: for EC50: Hepatitis C virus, 96 h, Huh7.5 cells, 4 days. Format: cell-based, hepatitis C virus. As for the experimental part:
as §1

Data set [10] relates to 1a-luc L31M (HCV genotype 1a replicon). Put plainly: Luciferase replicon transient transfection assay, 1a-luc L31M. Format: cell-based, hepatitis C virus. The conditions noted are these: for EC50: Hepatitis C virus, 96 h, Huh7.5 cells, 4 days. As for the experimental part:
as §1

The test system of data set [11] is ZS11-luc replicon, NS3-R155K. Put plainly: Luciferase replicon transient transfection assay, NS3-R155K. Format: cell-based, hepatitis C virus. The conditions noted are these: for EC50: Hepatitis C virus. How it is done:
as §1, §2

For data set [12], the system named is HCV genotype 1a replicon, NS3 T260A. Kind of data set: Luciferase replicon transient transfection assay, genotype 1a NS3 T260A. In kind it is cell-based, hepatitis C virus. The conditions noted are these: for EC50: Hepatitis C virus, genotype 1a, HCV region NS3, mutation T260A. How it is done: as §1, §2
Setting [13] is: Hepatitis C virus, Huh7.5, 96 h.

A value given as a limit tells only on which side of the number the result lay.

Turning to `COC(=O)N[C@H](C(=O)N1CCC[C@H]1c1ncc(-c2ccc(-c3csc4c(-c5cnc([C@@H]6CCCN6C(=O)[C@H](NC(=O)OC(C)(C)C)c6ccccc6)[nH]5)csc34)cc2)[nH]1)C(C)C` [Compound A111, [(S)-1-((S)-2-{4-[4-(6-{(S)-2-[1-((R)-2-tert-butoxycarbonylamino-2-phenyl-acetyl)-pyrrolidin-2-yl]-3H-imidazol-4-yl}-thieno[3,2-b]thiophen-3-yl)-phenyl]-1H-imidazol-2-yl}-pyrrolidine-1-carbonyl)-2-methyl-propyl]-carbamic acid methyl ester], the EC50 – broadly, the concentration giving half of the maximal effect – is 0.002 nM in data set [1] (setting [13]) and less than 1 nM in [2]. Further, the CC50 (as a rule, the concentration at which the toxic effect on the cells reaches its halfway point) in “in vitro” is more than 75000 nM.

In the case of `COC(=O)N[C@H](C(=O)N1CCC[C@H]1c1nc2cc(-c3csc4c(-c5ccc(-c6cnc([C@@H]7CCCN7C(=O)[C@H](NC(=O)OC)c7ccccc7)[nH]6)cc5)csc34)ccc2[nH]1)C(C)C` [Compound A169, [(S)-1-((S)-2-{6-[6-(4-{(S)-2-[1-((R)-2-methoxycarbonylamino-2-phenyl-acetyl)-pyrrolidin-2-yl]-3H-imidazol-4-yl}-phenyl)-thieno[3,2-b]thiophen-3-yl]-1H-benzoimidazol-2-yl}-pyrrolidine-1-carbonyl)-2-methyl-propyl]-carbamic acid methyl ester], the Ratio is 1 in data set [3]; 1.04 in [4]; 73 in data set [5]; 1.83 in [6]; 8 in data set [7]; 1 in data set [1]. Moreover, the Ratio was 146 in [8]; 155 in data set [9]; 311 in [10]; 1.01 in data set [11]; 1.57 in [12]. Also, the EC50 was 0.003 nM in data set [3]; 0.0018 nM in data set [4]; 0.2 nM in data set [5]; 0.004 nM in [6]; less than 0.1 nM with HCV genotype 5a; 0.02 nM in data set [7]. For the same molecule, the EC50 in data set [1] (setting [13]) turned out to be 0.002 nM; in data set [1] it was 0.0017 nM; in data set [8] it was 0.4 nM; in [9], 0.3 nM; in [10] it was 0.7 nM; in [11] it was 0.0017 nM. This molecule also returned an EC50 in data set [12] of 0.003 nM.

In the case of `COC(=O)N[C@H](C(=O)N1CCC[C@H]1c1ncc(-c2ccc(-c3csc4c(-c5ccc6[nH]c([C@@H]7CCCN7C(=O)[C@H](NC(=O)OC)c7ccccc7)nc6c5)csc34)cc2)[nH]1)C(C)C` [Compound A172, [(S)-1-((S)-2-{5-[4-(6-{(S)-2-[1-((R)-2-Methoxycarbonylamino-2-phenyl-acetyl)-pyrrolidin-2-yl]-3H-benzoimidazol-5-yl}-thieno[3,2-b]thiophen-3-yl)-phenyl]-1H-imidazol-2-yl}-pyrrolidine-1-carbonyl)-2-methyl-propyl]-carbamic acid methyl ester], the Ratio stood at 1 in [3]; 1.04 in data set [4]; 63 in data set [5]; 1.64 in data set [6]; 6 in data set [7]; 1 in data set [1]. Moreover, the Ratio in data set [8] is 65; in data set [9], 174; in data set [10] it was 378; in data set [11], 1.02; in data set [12] it was 1.61. Further, the EC50 is 0.006 nM in data set [3]; 0.0024 nM in data set [4]; 0.2 nM in data set [5]; 0.006 nM in [6]; less than 0.1 nM with HCV genotype 5a; 0.03 nM in data set [7]. Further, the EC50 in [8] is 0.3 nM; in data set [9], 0.7 nM; in [10], 2 nM; in data set [11], 0.0023 nM; in data set [12], 0.006 nM.

Consider `COC(=O)N[C@H](C(=O)N1CCC[C@H]1c1ncc(-c2ccc(-c3csc4c(-c5cnc([C@@H]6CCCN6C(=O)[C@@H](NC(=O)OC)C(C)C)[nH]5)csc34)cc2)[nH]1)C(C)C` [Compound A15, [(S)-1-((S)-2-{4-[4-(6-{2-[(S)-1-((S)-2-methoxycarbonylamino-3-methyl-butyryl)-pyrrolidin-2-yl]-3H-imidazol-4-yl}-thieno[3,2-b]thiophen-3-yl)-phenyl]-1H-imidazol-2-yl}-pyrrolidine-1-carbonyl)-2-methyl-propyl]-carbamic acid methyl ester], for which, in “in vitro”, the CC50 fell in the range of 10000 to 75000 nM. The molecule also showed an EC50 in data set [2] of less than 1 nM.
